For eight compounds, MED results are on record in ChEMBL document CHEMBL1150042, “The synthesis of BRL 49653 - a novel and potent antihyperglycaemic agent” (Bioorg Med Chem Lett, 1994).

SMILES strings stand for the structures.

The species entered for the experiment is Mus musculus. Description: Minimum effective dose for anti-hyperglycaemic activity was determined in C57B1/6 ob/ob obese mouse. It is filed as functional.
On to `CN(CCOc1ccc(CC2SC(=O)NC2=O)cc1)c1nc2ccccc2o1` (stereo not drawn) [BRL-48482], for which the MED was 3 uM.kg/diet.

The compound `CC1(COc2ccc(CC3SC(=O)NC3=O)cc2)CCCC(O)C1` (stereo not drawn) displayed an MED of 500 uM.kg/diet.

The compound `CCc1ccc(CCOc2ccc(CC3SC(=O)NC3=O)cc2)nc1` (stereo not drawn) [PIOGLITAZONE] showed an MED of 200 uM.kg/diet.

The compound `O=C1NC(=O)C(Cc2ccc3c(c2)CC[C@H](Cc2ccccc2)O3)S1` (stereo partly drawn) [ENGLITAZONE] returned an MED of 200 uM.kg/diet. Compound `CC1(COc2ccc(CC3SC(=O)NC3=O)cc2)CCCCC1` (stereo not drawn) [CIGLITAZONE] displayed an MED of 3000 uM.kg/diet. Compound `O=C(NCCOc1ccc(CC2SC(=O)NC2=O)cc1)Nc1ccccc1` (stereo not drawn) came in with an MED of 100 uM.kg/diet. Compound `CN(CCOc1ccc(CC2SC(=O)NC2=O)cc1)c1ccccn1` (stereo not drawn) [ROSIGLITAZONE] returned an MED of 3 µM/kg. The value for `Cc1c(C)c2c(c(C)c1O)CCC(C)(COc1ccc(CC3SC(=O)NC3=O)cc1)O2` (stereo not drawn) [TROGLITAZONE] was 600 uM.kg/diet.
